{
  "source": "PubChem BioAssay AID2060506",
  "about": "(Molecular Pharmacology Branch, DTP, NCI, 2025)",
  "tested_on": "598228-144-R-J1-PDC complex spheroid viability",
  "assay": "Anticancer human tumor 598228-144-R-J1-PDC patient-derived serous endometrial adenocarcinoma cell line growth inhibition [GQUAD]",
  "settings": "for pIC50: curve of first compound; for viability, T/C: stronger effect = lower value",
  "method_in_brief": "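Viability of tumor cells grown as complex spheroids with endothelial and stromal cells, exposed to drug combinations. Top concentration at or near clinical Cmax (else 10 microM), diluted in half-log increments.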",
  "note": "pIC50: −log10 of the molar value.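 Note: spheroids exposed to the agents for one week before reading.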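 Throughout, for viability, T/C: percent of vehicle DMSO control viability so 100% = untreated growth.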",
  "data": [
    {"smiles": "Cn1ncnc1[C@H]1c2n[nH]c(=O)c3cc(F)cc(c23)N[C@@H]1c1ccc(F)cc1", "note": "+ CN(C)c1ccc(Nc2c3ccc(NC(=O)CCN4CCCC4)cc3nc3cc(NC(=O)CCN4CCCC4)ccc23)cc1", "values": [
      {"measurement": "pIC50", "setting": "second compound 0.0316 µM", "value": "< 6.50"},
      {"measurement": "pIC50", "setting": "second compound 0.1 µM", "value": "< 6.50"},
      {"measurement": "pIC50", "setting": "second compound 0.316 µM", "value": "< 6.50"},
      {"measurement": "pIC50", "setting": "second compound 1 µM", "value": "< 6.50"},
      {"measurement": "pIC50", "setting": "second compound 3.16 µM", "value": "< 6.50"},
      {"measurement": "pIC50", "setting": "second compound 10 µM", "value": "< 6.50"},
      {"measurement": "viability, T/C", "setting": "second compound 0.0316 µM, first compound 0.000999 µM", "value": 118, "unit": "%"},
      {"measurement": "viability, T/C", "setting": "second compound 0.0316 µM, first compound 0.00316 µM", "value": 93.2, "unit": "%"},
      {"measurement": "viability, T/C", "setting": "second compound 0.0316 µM, first compound 0.00999 µM", "value": 103, "unit": "%"},
      {"measurement": "viability, T/C", "setting": "second compound 0.0316 µM, first compound 0.0316 µM", "value": 86.3, "unit": "%"},
      {"measurement": "viability, T/C", "setting": "second compound 0.0316 µM, first compound 0.0999 µM", "value": 80.8, "unit": "%"},
      {"measurement": "viability, T/C", "setting": "second compound 0.0316 µM, first compound 0.316 µM", "value": 76.8, "unit": "%"},
      {"measurement": "viability, T/C", "setting": "second compound 0.1 µM, first compound 0.000999 µM", "value": 104, "unit": "%"},
      {"measurement": "viability, T/C", "setting": "second compound 0.1 µM, first compound 0.00316 µM", "value": 97.5, "unit": "%"},
      {"measurement": "viability, T/C", "setting": "second compound 0.1 µM, first compound 0.00999 µM", "value": 100, "unit": "%"},
      {"measurement": "viability, T/C", "setting": "second compound 0.1 µM, first compound 0.0316 µM", "value": 80.8, "unit": "%"},
      {"measurement": "viability, T/C", "setting": "second compound 0.1 µM, first compound 0.0999 µM", "value": 87.8, "unit": "%"},
      {"measurement": "viability, T/C", "setting": "second compound 0.1 µM, first compound 0.316 µM", "value": 76.2, "unit": "%"},
      {"measurement": "viability, T/C", "setting": "second compound 0.316 µM, first compound 0.000999 µM", "value": 106, "unit": "%"},
      {"measurement": "viability, T/C", "setting": "second compound 0.316 µM, first compound 0.00316 µM", "value": 108, "unit": "%"},
      {"measurement": "viability, T/C", "setting": "second compound 0.316 µM, first compound 0.00999 µM", "value": 100, "unit": "%"},
      {"measurement": "viability, T/C", "setting": "second compound 0.316 µM, first compound 0.0316 µM", "value": 106, "unit": "%"},
      {"measurement": "viability, T/C", "setting": "second compound 0.316 µM, first compound 0.0999 µM", "value": 87.6, "unit": "%"},
      {"measurement": "viability, T/C", "setting": "second compound 0.316 µM, first compound 0.316 µM", "value": 62, "unit": "%"},
      {"measurement": "viability, T/C", "setting": "second compound 1 µM, first compound 0.000999 µM", "value": 101, "unit": "%"},
      {"measurement": "viability, T/C", "setting": "second compound 1 µM, first compound 0.00316 µM", "value": 97.3, "unit": "%"},
      {"measurement": "viability, T/C", "setting": "second compound 1 µM, first compound 0.00999 µM", "value": 114, "unit": "%"},
      {"measurement": "viability, T/C", "setting": "second compound 1 µM, first compound 0.0316 µM", "value": 110, "unit": "%"},
      {"measurement": "viability, T/C", "setting": "second compound 1 µM, first compound 0.0999 µM", "value": 95.7, "unit": "%"},
      {"measurement": "viability, T/C", "setting": "second compound 1 µM, first compound 0.316 µM", "value": 81.2, "unit": "%"},
      {"measurement": "viability, T/C", "setting": "second compound 3.16 µM, first compound 0.000999 µM", "value": 112, "unit": "%"},
      {"measurement": "viability, T/C", "setting": "second compound 3.16 µM, first compound 0.00316 µM", "value": 112, "unit": "%"},
      {"measurement": "viability, T/C", "setting": "second compound 3.16 µM, first compound 0.00999 µM", "value": 91.8, "unit": "%"},
      {"measurement": "viability, T/C", "setting": "second compound 3.16 µM, first compound 0.0316 µM", "value": 80.7, "unit": "%"},
      {"measurement": "viability, T/C", "setting": "second compound 3.16 µM, first compound 0.0999 µM", "value": 93.1, "unit": "%"},
      {"measurement": "viability, T/C", "setting": "second compound 3.16 µM, first compound 0.316 µM", "value": 69.8, "unit": "%"},
      {"measurement": "viability, T/C", "setting": "second compound 10 µM, first compound 0.000999 µM", "value": 91.7, "unit": "%"},
      {"measurement": "viability, T/C", "setting": "second compound 10 µM, first compound 0.00316 µM", "value": 86.3, "unit": "%"},
      {"measurement": "viability, T/C", "setting": "second compound 10 µM, first compound 0.00999 µM", "value": 96.2, "unit": "%"},
      {"measurement": "viability, T/C", "setting": "second compound 10 µM, first compound 0.0316 µM", "value": 68.7, "unit": "%"},
      {"measurement": "viability, T/C", "setting": "second compound 10 µM, first compound 0.0999 µM", "value": 73.2, "unit": "%"},
      {"measurement": "viability, T/C", "setting": "second compound 10 µM, first compound 0.316 µM", "value": 53.7, "unit": "%"}
    ]}
  ]
}
